Residue numbers refer to the chain shown, from its start. Counter-ions that a name gives are not always drawn. Like-named read-outs stand apart in the source and are kept apart here.
How the values were obtained:
human TRPV3 [1] = molecular target: T1, human TRPV3 (Homo sapiens, UniProt Q8NET8); assay: Re-evaluation of screening hits as TRPV3 agonists; type: cell-based; settings: Table 1
T1 sequence (Q8NET8 1-790): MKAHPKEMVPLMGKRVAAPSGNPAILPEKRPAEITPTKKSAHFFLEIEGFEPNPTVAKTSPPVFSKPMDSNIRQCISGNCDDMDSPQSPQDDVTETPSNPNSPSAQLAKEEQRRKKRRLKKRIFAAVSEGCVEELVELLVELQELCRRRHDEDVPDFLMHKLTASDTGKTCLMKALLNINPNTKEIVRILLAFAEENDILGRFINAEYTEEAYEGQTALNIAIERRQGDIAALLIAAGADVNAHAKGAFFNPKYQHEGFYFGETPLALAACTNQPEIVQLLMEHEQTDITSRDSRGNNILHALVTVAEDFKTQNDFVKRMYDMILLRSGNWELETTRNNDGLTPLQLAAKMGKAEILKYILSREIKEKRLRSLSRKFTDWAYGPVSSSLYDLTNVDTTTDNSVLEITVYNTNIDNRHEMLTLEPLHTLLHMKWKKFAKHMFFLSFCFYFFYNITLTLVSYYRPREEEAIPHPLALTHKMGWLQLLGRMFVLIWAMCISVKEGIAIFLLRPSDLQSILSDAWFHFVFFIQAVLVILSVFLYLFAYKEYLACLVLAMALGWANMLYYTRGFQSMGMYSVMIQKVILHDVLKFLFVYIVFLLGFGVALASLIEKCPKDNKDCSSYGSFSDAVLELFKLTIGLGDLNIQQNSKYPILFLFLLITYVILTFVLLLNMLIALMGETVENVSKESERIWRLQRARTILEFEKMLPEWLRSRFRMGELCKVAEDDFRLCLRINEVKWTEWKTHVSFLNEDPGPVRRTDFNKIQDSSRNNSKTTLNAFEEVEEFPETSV

human TRPV3 [2] = molecular target: T1, human TRPV3; assay: Re-evaluation of screening hits as TRPV3 antagonists; type: cell-based; settings: Table 2; selectivity versus other TRP channel overexpressing HEK-293 lines
human TRPV3 [3] = molecular target: T1, human TRPV3; assay: Inhibition of agonist-induced calcium flux in TRPV3 overexpressing HEK-293 cells; type: cell-based; settings: all three agonists (drofenine, carvacrol, 2-APB)
human TRPV1 = human TRPV1 (Homo sapiens, UniProt Q8NER1); assay: Calcium flux in HEK-293 cells overexpressing TRPV1; type: cell-based; settings: Table 2 comment
TRPV3-H426N = molecular target: T2, TRPV3-H426N (Homo sapiens, UniProt Q8NET8, H426N); assay: Calcium flux in HEK-293 cells transiently transfected with TRPV3-H426N; type: cell-based; settings: agonist 100 μmol/L
T2 sequence (Q8NET8 1-790 H426N): T1 sequence (Q8NET8 1-790) with H426N

TRPV3 in HaCaT cells = molecular target: T3, TRPV3 in HaCaT cells (Homo sapiens, UniProt Q8NET8); assay: Calcium flux in HaCaT cells; type: cell-based
T3 sequence (Q8NET8 1-790): T1 sequence (Q8NET8 1-790)

human TRPV3 [4] = molecular target: T1, human TRPV3; assay: Calcium flux in TRPV3 overexpressing HEK-293 cells; type: cell-based
TRPV3-R696K = molecular target: T4, TRPV3-R696K (Homo sapiens, UniProt Q8NET8, R696K); assay: Calcium flux in HEK-293 cells transiently transfected with TRPV3-R696K; type: cell-based; settings: 100 μmol/L carvacrol, 100 μmol/L 2-APB, 100 and 200 μmol/L drofenine
T4 sequence (Q8NET8 1-790 R696K): T1 sequence (Q8NET8 1-790) with R696K

TRPV3 = settings: cited from earlier work; for EC50: depending on the model used
HaCaT cells = assay: Cell viability assay; type: cell-based, human; settings: data not shown

Sequence of human TRPV1 (Q8NER1 whole entry): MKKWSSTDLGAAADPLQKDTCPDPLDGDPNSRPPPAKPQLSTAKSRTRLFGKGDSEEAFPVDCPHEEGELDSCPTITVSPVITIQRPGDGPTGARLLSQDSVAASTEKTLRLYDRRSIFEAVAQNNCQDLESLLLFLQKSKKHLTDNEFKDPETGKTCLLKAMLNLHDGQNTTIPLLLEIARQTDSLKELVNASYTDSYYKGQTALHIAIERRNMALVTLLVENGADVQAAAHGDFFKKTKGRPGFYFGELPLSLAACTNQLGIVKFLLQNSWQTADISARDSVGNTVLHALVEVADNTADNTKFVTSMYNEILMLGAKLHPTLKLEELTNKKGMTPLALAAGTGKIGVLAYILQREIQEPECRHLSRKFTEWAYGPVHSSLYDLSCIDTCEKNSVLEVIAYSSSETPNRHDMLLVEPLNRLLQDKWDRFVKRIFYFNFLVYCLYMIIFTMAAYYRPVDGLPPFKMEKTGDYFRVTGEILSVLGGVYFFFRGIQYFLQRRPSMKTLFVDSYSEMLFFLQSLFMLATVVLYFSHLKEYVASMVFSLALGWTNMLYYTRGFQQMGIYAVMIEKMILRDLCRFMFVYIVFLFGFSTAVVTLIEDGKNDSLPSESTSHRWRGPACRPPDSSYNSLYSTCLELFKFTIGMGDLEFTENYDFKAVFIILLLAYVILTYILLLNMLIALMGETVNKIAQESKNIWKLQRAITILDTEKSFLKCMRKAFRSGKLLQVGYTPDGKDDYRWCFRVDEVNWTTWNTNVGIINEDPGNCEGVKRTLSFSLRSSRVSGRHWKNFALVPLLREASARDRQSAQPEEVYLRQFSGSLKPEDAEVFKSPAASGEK

Compound	Comment(s): re-evaluation as TRPV3 agonist (human TRPV3 [1])	Comment(s): re-evaluation as TRPV3 antagonist (human TRPV3 [2])	other results
CC(=O)Nc1ccccc1 [Acetanilide]	Inactive in confirmation assay		
CC(=O)OCC[N+](C)(C)C [Acetylcholine]	Nonselective; HEK-293 response		
CCCCCCc1ccc(O)cc1O.Nc1c2ccccc2nc2ccccc12 [Acrisorcin]	4-Hexylresorcinol inactive as TRPV3 agonist; 9-aminoacridine fluorescence interference		
CC(C)COCC(CN(Cc1ccccc1)c1ccccc1)N1CCCC1.Cl.O (centres unmarked) [Bepradil HCl]	Inactive in confirmation assay		
C[N+](C)(C)CCOC(N)=O [Carbachol]	Nonselective; HEK-293 response		
O=C(N[C@H](CO)[C@H](O)c1ccc([N+](=O)[O-])cc1)C(Cl)Cl [Chloramphenicol]		Not inhibitory on rescreen	
CCCCOc1ccc(C(=O)CCN2CCCCC2)cc1 [Dyclonine HCl]		Not inhibitory on rescreen	
CC[C@H]1OC(=O)[C@H](C)[C@@H](O[C@H]2C[C@@](C)(OC)[C@@H](O)[C@H](C)O2)[C@H](C)[C@@H](O[C@@H]2O[C@H](C)C[C@H](N(C)C)[C@H]2O)[C@](C)(O)C[C@@H](C)C(=O)[C@H](C)[C@@H](O)[C@]1(C)O [Erythromycin]		Not inhibitory on rescreen	
COc1cc([C@@H]2c3cc4c(cc3[C@@H](O[C@@H]3O[C@@H]5CO[C@@H](C)O[C@H]5[C@H](O)[C@H]3O)[C@H]3COC(=O)[C@H]23)OCO4)cc(OC)c1O [Etoposide]		Cytotoxic, false positive	
O=C(O)c1ccccc1Nc1cccc(C(F)(F)F)c1 [Flufenamic acid]		Nonselective; also inhibited TRPV1	
CC(=O)OC(C)C[N+](C)(C)C (centres unmarked) [Methacholine]	Nonselective; HEK-293 response		
CN[C@@H]1[C@H](O)[C@H](NC)[C@H]2O[C@@]3(O)C(=O)C[C@@H](C)O[C@H]3O[C@@H]2[C@H]1O.Cl.Cl.O.O.O.O.O [Spectinomycin HCl]		Not inhibitory on rescreen	
O=C1C(CC[S+]([O-])c2ccccc2)C(=O)N(c2ccccc2)N1c1ccccc1 (centres unmarked) [Sulfinpyrazone]		Not inhibitory on rescreen	
Cc1cccc2c1N(C(=O)CSc1ccc(C(F)(F)F)cn1)CCC2 [TRPV3 antagonist, 2-(5-trifluoromethyl-pyridine-2ylsulfanyl)-1-(8-methyl-3,4-dihydro-2H-quinolin-1-yl)-ethanone]			IC50 (human TRPV3 [3]): 1 to 3 µM
CCCCNc1ccc(C(=O)OCCN(C)C)cc1 [Tetracaine HCl]		inhibited TRPA1>V3=V1	concentration of apparent TRPV1 agonist activity (human TRPV1): < 25 µmol/L
CC(=O)CC(c1ccccc1)c1c(O)c2ccccc2oc1=O (centres unmarked) [Warfarin]		Nonselective; also inhibited TRPV1	
Cc1ccc(C(C)C)cc1O [carvacrol]			calcium flux in TRPV3-H426N relative to TRPV3-WT (TRPV3-H426N): no effect; EC50 (TRPV3 in HaCaT cells): > 1000 µM; EC50 (human TRPV3 [4]): 438 µM; calcium flux in TRPV3-R696K (TRPV3-R696K): diminished-to-no-function
Cc1ccc(C(C)(C)C)c(O)c1 [cresol, 6-tert-butyl-m-cresol]			EC50 (TRPV3; ref Vogt-Eisele et al. [2007]): > 6000 µM
CC(C)=CCC/C(C)=C/CC/C(C)=C/COP(=O)(O)OP(=O)(O)O [farnesyl pyrophosphate]			EC50 (TRPV3; ref Bang et al. [2010]): ~0.13 µM
O=C1NC(c2cccc([N+](=O)[O-])c2)=CCN1c1ccccc1O [icilin]			inhibition of TRPV3 (TRPV3; ref Sherkheli et al. [2012]): inhibits TRPV3 at low micromolar concentrations; cytotoxicity (HaCaT cells): potently cytotoxic
Acriflavinium HCl	Fluorescence interference		
